Read-outs that look alike come from different tables or passages of the source.
Experiments:
[1] = Oxidation potential (Eox) of the dye; assay type: physicochemical; details: Tables I, II, V, VI
[2] = test system: Bacillus pumilus strain K-1; assay: Inhibition of bacterial growth, filter paper on inoculated agar plates; assay type: cell-based; details: Tables V and VI; 10^-3 molar, three days
[3] = Reduction potential (ER) of the dye; details: Tables I, II, V, VI, VII, IX
Method: (§1) If a published reduction potential is not available, suitable techniques for measuring reduction potential are available and can be used. […] This technique involves measurement at 20° C., of an approximately 10^-4 molar solution of the dye in an electrolyte, such as methanol which is 0.05 molar in lithium chloride, using a dropping mercury electrode. The potential values are reported by reference to a silver-silver chloride electrode in a saturated solution of potassium chloride at 20° C.

[4] = test system: Sea Urchin Eggs; assay: Inhibition of cell division in fertilized sea urchin eggs; assay type: cell-based; details: arbitrary scale 0 to 5, 5 most active; dye 10^-5 to 10^-6 molar, 60 minutes after fertilization
Method: To suspensions in filtered sea water of fertilized sea urchin eggs there was added, three minutes after fertilization, methanolic solutions of the dyes in an amount sufficient to yield a final concentration of dye of between 10^-5 and 10^-6 molar. The final concentration of methanol was, at a maximum 1×10^-4 molar. The eggs were visually observed at 60 minutes after fertilization to determine if cell division and the formation of mitotic apparatus had been inhibited. A rating was assigned based on the concentration of dye required to inhibit cell division and synthesis of DNA.

[5] = not told
Method: as §1

[6] = test system: Bacillus pumilus (K-1)
[7] = Solubility / stability comments on the dyes; assay type: physicochemical; details: Table IX

| ER [5] | reduction potential (ER) [5] | % Bound [6] | Comment: solubility [7] | SMILES | Eox [1] | Diameter of Inhibition [2] | ER [3] | Sea Urchin Eggs Activity [4] |
| --- | --- | --- | --- | --- | --- | --- | --- | --- |
| – | – | – | – | CCN1C(=CC=Cc2sc3cc([N+](=O)[O-])ccc3[n+]2CC)Sc2cc([N+](=O)[O-])ccc21 [17,6,6'-dinitro] | +.96 | None | -.58 | – |
| -1.12 | -1.12 volts | 93.1% | Insoluble | CCN1C(=CC=Cc2sc3ccc4ccccc4c3[n+]2CC)Sc2ccc3ccccc3c21 [Dye 12] | – | – | – | 0 |

— patent US4232121A, “Process for selecting methine dyes which inhibit cell growth” (Eastman Kodak Company, priority 1978, dated 1980)
